Assay results reported in US20250296959A1, “B7-H3 TARGETING PEPTIDES AND CONSTRUCTS THEREOF” (Mariana Oncology Inc., priority 2024, published 2025).
Starred links: 1 amine or outer side, 2 acyl side, 3 side chain; linkers in the order of their positions; H or OH if unused. Positions of bridges follow the written chain, without caps; N, C: chain ends. Non-standard residues stand in square brackets, D forms with d. Residues, ends and D or L forms follow the SMILES beside them. Groups on a side chain read outwards from the residue. *: point of attachment. X2 = O=C(O)CN1CCN(CC(=O)O)CCN(CC(=O)NCCOCCOCCOCCOCC(=O)*)CCN(CC(=O)O)CC1; Ala(piperidin-4-yl) = O=C([C@H](CC1CCN([*:3])CC1)N[*:1])[*:2]; Phe(3-CH2NH2) = O=C([C@H](Cc1cccc(CN[*:3])c1)N[*:1])[*:2]; DOTA = O=C(O)CN1CCN(CC(=O)O)CCN(CC(=O)*)CCN(CC(=O)O)CC1; Trp(5-F) = N[C@@H](Cc1c[nH]c2ccc(F)cc12)C(=O)O; 1Nal = N[C@@H](Cc1cccc2ccccc12)C(=O)O; Ala(4-THP) = N[C@@H](CC1CCOCC1)C(=O)O; Val(3-OH) = CC(C)(O)[C@H](N)C(=O)O; 4Pal = N[C@@H](Cc1ccncc1)C(=O)O; Cha = N[C@@H](CC1CCCCC1)C(=O)O; PEG4 = NCCOCCOCCOCCOCCC(=O)O; Tle = CC(C)(C)[C@H](N)C(=O)O; hLeu = CC(C)CC[C@H](N)C(=O)O; NMeS = CN[C@@H](CO)C(=O)O; Nle = CCCC[C@H](N)C(=O)O

molecular target: T1, human 4lg B7-H3 (Homo sapiens, UniProt Q5ZPR3); test: Affinity determination by surface plasmon resonance (SPR) to 4Ig B7-H3; conditions: SPR KD—25° C., 4Ig B7-H3; 25° C. flow cell temperature
T1 sequence (Q5ZPR3 29-534): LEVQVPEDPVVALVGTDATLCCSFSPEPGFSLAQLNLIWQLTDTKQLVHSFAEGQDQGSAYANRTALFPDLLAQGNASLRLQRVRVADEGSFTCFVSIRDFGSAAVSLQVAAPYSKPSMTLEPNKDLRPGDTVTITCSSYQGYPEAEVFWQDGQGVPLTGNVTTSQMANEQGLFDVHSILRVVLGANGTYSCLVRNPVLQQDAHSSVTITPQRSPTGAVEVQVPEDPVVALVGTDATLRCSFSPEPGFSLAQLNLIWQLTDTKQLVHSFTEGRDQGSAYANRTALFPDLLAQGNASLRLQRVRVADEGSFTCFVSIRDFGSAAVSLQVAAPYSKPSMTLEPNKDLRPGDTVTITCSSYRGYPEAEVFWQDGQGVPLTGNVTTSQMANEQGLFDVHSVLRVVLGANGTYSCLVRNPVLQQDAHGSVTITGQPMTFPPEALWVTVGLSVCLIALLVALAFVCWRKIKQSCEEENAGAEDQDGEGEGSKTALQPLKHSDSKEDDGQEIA

SMILES	Kd [nM]
CC(=O)N[C@@H](CCC(C)C)C(=O)N[C@@H](Cc1ccc(O)cc1)C(=O)N[C@H]1CSSC[C@@H](C(=O)N[C@@H](Cc2cccc3ccccc23)C(=O)N[C@@H](Cc2ccccc2)C(=O)N2CCC[C@H]2C(N)=O)NC(=O)[C@H](Cc2ccc(O)cc2)NC(=O)[C@H](C(C)C)NC(=O)[C@H](CC(=O)O)NC(=O)[C@H](Cc2cccc(CNC(=O)COCCOCCOCCOCCNC(=O)CN3CCN(CC(=O)O)CCN(CC(=O)O)CCN(CC(=O)O)CC3)c2)NC(=O)[C@H](CCCCN)NC(=O)CNC(=O)[C@H](C(C)(C)C)NC1=O [compound 257, Ac-hLeu-Y-C-Tbg-G-K-MAF(PEG4-DOTA)-D-V-Y-C-1Nal-F-Pro-CONH2] (Ac-[hLeu]YC[Tle]GK[Phe(3-CH2NH2)](X2)DVYC[1Nal]FP-NH2; disulfide 3-11)	1 to 10
CCCC[C@H](NC(C)=O)C(=O)N[C@@H](Cc1ccc(O)cc1)C(=O)N[C@H]1CSSC[C@@H](C(=O)N[C@@H](Cc2c[nH]c3ccccc23)C(=O)N[C@@H](Cc2ccccc2)C(=O)N[C@H](C(=O)N[C@H](CCCCNC(=O)CN2CCN(CC(=O)O)CCN(CC(=O)O)CCN(CC(=O)O)CC2)C(N)=O)[C@@H](C)O)NC(=O)[C@H](Cc2ccc(O)cc2)NC(=O)[C@H](C(C)C)NC(=O)[C@H](CC(=O)O)NC(=O)[C@H](Cc2ccncc2)NC(=O)[C@H](CCCCN)NC(=O)CNC(=O)[C@H](C(C)C)NC1=O [compound 58, Ac-Nie-Y-C-V-G-K-4PyA-D-V-Y-C-W-F-Thr-dLys(DOTA)-CONH2] (Ac-[Nle]YCVGK[4Pal]DVYCWFT[dK](DOTA)-NH2; disulfide 3-11)	1 to 10
CCCC[C@H](NC(C)=O)C(=O)N[C@@H](Cc1ccc(O)cc1)C(=O)N[C@H]1CSSC[C@@H](C(=O)N[C@@H](Cc2c[nH]c3ccccc23)C(=O)N[C@@H](Cc2ccccc2)C(=O)N[C@@H](CCC(=O)O)C(N)=O)NC(=O)[C@H](Cc2ccc(O)cc2)NC(=O)[C@H](C(C)C)NC(=O)[C@H](CC(=O)O)NC(=O)[C@H](Cc2ccc(O)cc2)NC(=O)[C@H](CCCCN)NC(=O)CNC(=O)[C@H](C(C)C)NC1=O [compound 34, Ac-Nle-Y-C-V-G-K-Y-D-V-Y-C-W-F-E-CONH2] (Ac-[Nle]YCVGKYDVYCWFE-NH2; disulfide 3-11)	1 to 10
CC[C@H](C)[C@@H]1NC(=O)[C@@H](NC(=O)[C@H](Cc2ccc(O)cc2)NC(=O)[C@H](CCC(C)C)NC(C)=O)CSSC[C@@H](C(=O)N[C@@H](Cc2c[nH]c3ccc(F)cc23)C(=O)N[C@@H](Cc2ccccc2)C(=O)N(C)[C@@H](CO)C(N)=O)NC(=O)[C@H](Cc2ccc(O)cc2)NC(=O)[C@H](C(C)C)NC(=O)[C@H](CC(=O)O)NC(=O)[C@H](CC2CCCCC2)NC(=O)[C@H](CCCCNC(=O)CN2CCN(CC(=O)O)CCN(CC(=O)O)CCN(CC(=O)O)CC2)NC(=O)CNC1=O [compound 232, Ac-hLeu-Y-C-Ile-G-Lys(DOTA)-CHA-D-V-Y-C-5FW-F-NMeSer-CONH2] (Ac-[hLeu]YCIGK(DOTA)[Cha]DVYC[Trp(5-F)]F[NMeS]-NH2; disulfide 3-11)	10 to 100

same assay, conditions: SPR KD—37° C., 4Ig B7-H3; 37° C. flow cell temperature

SMILES	Kd [nM]
CC(=O)N[C@@H](CCC(C)C)C(=O)N[C@@H](Cc1ccc(O)cc1)C(=O)N[C@H]1CSSC[C@@H](C(=O)N[C@@H](Cc2c[nH]c3ccc(F)cc23)C(=O)N[C@@H](Cc2ccccc2)C(=O)N[C@H](C(=O)N[C@H](CO)C(=O)O)C(C)(C)O)NC(=O)[C@H](Cc2ccc(O)cc2)NC(=O)[C@H](C(C)C)NC(=O)[C@H](CC(=O)O)NC(=O)[C@H](CC2CCOCC2)NC(=O)[C@H](CC2CCN(C(=O)CCOCCOCCOCCOCCNC(=O)CN3CCN(CC(=O)O)CCN(CC(=O)O)CCN(CC(=O)O)CC3)CC2)NC(=O)CNC(=O)[C@H](C(C)(C)C)NC1=O [compound 490, Ac-hLeu-Y-C-Tbg-G-Pip(PEG4-DOTA)Ala-ThpA-D-V-Y-C-5FW-F-hydroxyVal-dSer-COOH] (Ac-[hLeu]YC[Tle]G[Ala(piperidin-4-yl)]([PEG4-DOTA])[Ala(4-THP)]DVYC[Trp(5-F)]F[Val(3-OH)][dS]-OH; disulfide 3-11)	< 1
CCCC[C@H](NC(C)=O)C(=O)N[C@@H](Cc1ccc(O)cc1)C(=O)N[C@H]1CSSC[C@@H](C(=O)N[C@@H](Cc2c[nH]c3ccccc23)C(=O)N[C@@H](Cc2ccccc2)C(=O)N[C@@H](CCC(=O)O)C(N)=O)NC(=O)[C@H](Cc2ccc(O)cc2)NC(=O)[C@H](C(C)C)NC(=O)[C@H](CC(=O)O)NC(=O)[C@H](Cc2ccc(O)cc2)NC(=O)[C@H](CCCCN)NC(=O)CNC(=O)[C@H](C(C)C)NC1=O [compound 34, Ac-Nle-Y-C-V-G-K-Y-D-V-Y-C-W-F-E-CONH2] (Ac-[Nle]YCVGKYDVYCWFE-NH2; disulfide 3-11)	10 to 100
